Reference: ChEMBL document CHEMBL2016493, “Design, synthesis, synergistic antimicrobial activity and cytotoxicity of 4-aryl substituted 3,4-dihydropyrimidinones of curcumin” (Bioorg Med Chem Lett, 2012)
Activity calls are given as the source filed them. The calls are words filed in the database; no cut-off is given here.

Tests used:
Trichoderma viride [1] = test: Antifungal activity against Trichoderma viride MTCC 1107 at 20 uM/ml after 48 hrs by paper disc diffusion method; type: functional; settings: for zone of inhibition at 20 µM: MTCC 1107, 48 h, read-out: IZ
Pseudomonas aeruginosa [2] = test: Antibacterial activity against Pseudomonas aeruginosa ATCC 15499 at 160 uM/ml after 24 hrs by kirby-bauer method; type: functional; settings: ATCC 15499, 24 h, read-out: IZ
[3] = test system: Burkholderia pseudomallei; test: Antibacterial activity against Burkholderia pseudomallei NTCC 10274 at 20 uM/ml after 24 hrs by kirby-bauer method; type: functional; settings: for zone of inhibition at 20 µM: NTCC 10274, 24 h, read-out: IZ
[4] = test system: Burkholderia pseudomallei; test: Antibacterial activity against Burkholderia pseudomallei NTCC 10274 at 40 uM/ml after 24 hrs by kirby-bauer method; type: functional; settings: for zone of inhibition at 40 µM: NTCC 10274, 24 h, read-out: IZ
Aspergillus niger [5] = test: Antifungal activity against Aspergillus niger MTCC 1108 at 20 uM/ml after 48 hrs by paper disc diffusion method; type: functional
Pseudomonas aeruginosa [6] = test: Antibacterial activity against Pseudomonas aeruginosa ATCC 15499 at 40 uM/ml after 24 hrs by kirby-bauer method; type: functional; settings: for zone of inhibition at 40 µM: ATCC 15499, 24 h, read-out: IZ
Salmonella typhimurium [7] = test: Antibacterial activity against Salmonella typhimurium ATCC 23564 at 160 uM/ml after 24 hrs by kirby-bauer method; type: functional, Salmonella enterica subsp. enterica serovar Typhimurium; settings: Salmonella enterica, ATCC 23564, 24 h; read-out: IZ
Trichoderma viride [8] = test: Antifungal activity against Trichoderma viride MTCC 1107 at 40 uM/ml after 48 hrs by paper disc diffusion method; type: functional; settings: MTCC 1107, 48 h, read-out: IZ
Staphylococcus aureus [9] = test: Antibacterial activity against Staphylococcus aureus ATCC 11632 at 80 uM/ml after 24 hrs by kirby-bauer method; type: functional; settings: ATCC 11632, 24 h, read-out: IZ
Curvularia lunata [10] = test: Antifungal activity against Curvularia lunata MTCC 581 at 20 uM/ml after 48 hrs by paper disc diffusion method; type: functional; settings: MTCC 581, 48 h, read-out: IZ
Salmonella typhimurium [11] = test: Antibacterial activity against Salmonella typhimurium ATCC 23564 at 40 uM/ml after 24 hrs by kirby-bauer method; type: functional, Salmonella enterica subsp. enterica serovar Typhimurium; settings: for zone of inhibition at 40 µM: Salmonella enterica, ATCC 23564, 24 h, read-out: IZ
Escherichia coli [12] = test: Antibacterial activity against Escherichia coli ATCC 35218 at 80 uM/ml after 24 hrs by kirby-bauer method; type: functional; settings: ATCC 35218, 24 h, read-out: IZ
Curvularia lunata [13] = test: Antifungal activity against Curvularia lunata MTCC 581 at 40 uM/ml after 48 hrs by paper disc diffusion method; type: functional; settings: MTCC 581, 48 h, read-out: IZ
[14] = test system: Burkholderia pseudomallei; test: Antibacterial activity against Burkholderia pseudomallei NTCC 10274 at 80 uM/ml after 24 hrs by kirby-bauer method; type: functional; settings: NTCC 10274, 24 h, read-out: IZ
Pseudomonas aeruginosa [15] = test: Antibacterial activity against Pseudomonas aeruginosa ATCC 15499 at 80 uM/ml after 24 hrs by kirby-bauer method; type: functional; settings: ATCC 15499, 24 h, read-out: IZ
Curvularia lunata [16] = test: Antifungal activity against Curvularia lunata MTCC 581 at 80 uM/ml after 48 hrs by paper disc diffusion method; type: functional; settings: MTCC 581, 48 h, read-out: IZ
Aspergillus flavus [17] = test: Antifungal activity against Aspergillus flavus MTCC 1021 at 20 uM/ml after 48 hrs by paper disc diffusion method; type: functional
QG-56 = test: Cytotoxicity against human QG56 cells after 48 hrs by MTT assay; type: functional, cell-based
Salmonella typhimurium [18] = test: Antibacterial activity against Salmonella typhimurium ATCC 23564 at 80 uM/ml after 24 hrs by kirby-bauer method; type: functional, Salmonella enterica subsp. enterica serovar Typhimurium; settings: for zone of inhibition at 80 µM: Salmonella enterica, ATCC 23564, 24 h, read-out: IZ
Aspergillus flavus [19] = test: Antifungal activity against Aspergillus flavus MTCC 1021 at 160 uM/ml after 48 hrs by paper disc diffusion method; type: functional; settings: MTCC 1021, 48 h, read-out: IZ
Staphylococcus aureus [20] = test: Antibacterial activity against Staphylococcus aureus ATCC 11632 at 20 uM/ml after 24 hrs by kirby-bauer method; type: functional
Aspergillus flavus [21] = test: Antifungal activity against Aspergillus flavus MTCC 1021 at 40 uM/ml after 48 hrs by paper disc diffusion method; type: functional
Aspergillus niger [22] = test: Antifungal activity against Aspergillus niger MTCC 1108 at 80 uM/ml after 48 hrs by paper disc diffusion method; type: functional; settings: MTCC 1108, 48 h, read-out: IZ
Salmonella typhimurium [23] = test: Antibacterial activity against Salmonella typhimurium ATCC 23564 at 20 uM/ml after 24 hrs by kirby-bauer method; type: functional; settings: for inhibition zone (IZ): Salmonella enterica subsp. enterica serovar Typhimurium
Escherichia coli [24] = test: Antibacterial activity against Escherichia coli ATCC 35218 at 40 uM/ml after 24 hrs by kirby-bauer method; type: functional; settings: ATCC 35218, 24 h, read-out: IZ
[25] = test system: Burkholderia pseudomallei; test: Antibacterial activity against Burkholderia pseudomallei NTCC 10274 at 160 uM/ml after 24 hrs by kirby-bauer method; type: functional; settings: NTCC 10274, 24 h, read-out: IZ
Aspergillus flavus [26] = test: Antifungal activity against Aspergillus flavus MTCC 1021 at 80 uM/ml after 48 hrs by paper disc diffusion method; type: functional
Trichoderma viride [27] = test: Antifungal activity against Trichoderma viride MTCC 1107 at 160 uM/ml after 48 hrs by paper disc diffusion method; type: functional; settings: MTCC 1107, 48 h, read-out: IZ
Aspergillus niger [28] = test: Antifungal activity against Aspergillus niger MTCC 1108 at 160 uM/ml after 48 hrs by paper disc diffusion method; type: functional; settings: MTCC 1108, 48 h, read-out: IZ
Pseudomonas aeruginosa [29] = test: Antibacterial activity against Pseudomonas aeruginosa ATCC 15499 at 20 uM/ml after 24 hrs by kirby-bauer method; type: functional
Staphylococcus aureus [30] = test: Antibacterial activity against Staphylococcus aureus ATCC 11632 at 40 uM/ml after 24 hrs by kirby-bauer method; type: functional
Escherichia coli [31] = test: Antibacterial activity against Escherichia coli ATCC 35218 at 20 uM/ml after 24 hrs by kirby-bauer method; type: functional
Aspergillus niger [32] = test: Antifungal activity against Aspergillus niger MTCC 1108 at 40 uM/ml after 48 hrs by paper disc diffusion method; type: functional; settings: for zone of inhibition at 40 µM: MTCC 1108, 48 h, read-out: IZ
Trichoderma viride [33] = test: Antifungal activity against Trichoderma viride MTCC 1107 at 80 uM/ml after 48 hrs by paper disc diffusion method; type: functional; settings: MTCC 1107, 48 h, read-out: IZ
Curvularia lunata [34] = test: Antifungal activity against Curvularia lunata MTCC 581 at 160 uM/ml after 48 hrs by paper disc diffusion method; type: functional; settings: MTCC 581, 48 h, read-out: IZ
Staphylococcus aureus [35] = test: Antibacterial activity against Staphylococcus aureus ATCC 11632 at 160 uM/ml after 24 hrs by kirby-bauer method; type: functional; settings: ATCC 11632, 24 h, read-out: IZ
Escherichia coli [36] = test: Antibacterial activity against Escherichia coli ATCC 35218 at 160 uM/ml after 24 hrs by kirby-bauer method; type: functional; settings: for zone of inhibition at 160 µM: ATCC 35218, 24 h, read-out: IZ
[37] = Salmonella enterica subsp. enterica serovar Typhimurium

Structure (SMILES) | zone of inhibition at 160 µM (Pseudomonas aeruginosa [2]) [mm] | zone of inhibition at 160 µM (Salmonella typhimurium [7]) [mm] | zone of inhibition (Trichoderma viride [8]) [mm] | zone of inhibition at 80 µM (Staphylococcus aureus [9]) [mm] | zone of inhibition at 20 µM (Curvularia lunata [10]) [mm] | zone of inhibition at 40 µM (Curvularia lunata [13]) [mm] | zone of inhibition at 80 µM [14] [mm] | zone of inhibition at 80 µM (Pseudomonas aeruginosa [15]) [mm] | zone of inhibition at 80 µM (Curvularia lunata [16]) [mm] | inhibition zone (IZ) (Aspergillus flavus [17]) | IC50 (QG-56) [uM/ml] | zone of inhibition at 160 µM (Aspergillus flavus [19]) [mm] | zone of inhibition at 80 µM (Aspergillus niger [22]) [mm] | IC50 (HCT-116) [uM/ml] | zone of inhibition at 160 µM [25] [mm] | IC50 (HepG2) [uM/ml] | zone of inhibition at 160 µM (Trichoderma viride [27]) [mm] | zone of inhibition at 160 µM (Aspergillus niger [28]) [mm] | zone of inhibition at 80 µM (Trichoderma viride [33]) [mm] | zone of inhibition at 160 µM (Curvularia lunata [34]) [mm] | other results
COc1cc(/C=C/C(=O)C2=C(/C=C/c3ccc(O)c(OC)c3)NC(=S)NC2c2ccc(O)c(OC)c2)ccc1O (centres undefined) | 14 | 14 | 9 | 9 | 19 | 21 | 18 | 11 | 22 | inactive | 100 | 11 | 12 | 100 | 21 | 50 | 13 | 16 | 11 | 24 | inhibition zone (IZ) (Trichoderma viride [1]): inactive; zone of inhibition at 20 µM [3]: 13 mm; zone of inhibition at 40 µM [4]: 16 mm; zone of inhibition at 20 µM (Aspergillus niger [5]; MTCC 1108, 48 h, read-out: IZ): 9 mm; zone of inhibition at 40 µM (Pseudomonas aeruginosa [6]): 9 mm; zone of inhibition at 40 µM (Salmonella typhimurium [11]): 9 mm; zone of inhibition at 80 µM (Escherichia coli [12]): 11 mm; zone of inhibition at 80 µM (Salmonella typhimurium [18]): 12 mm; inhibition zone (IZ) (Staphylococcus aureus [20]): inactive; inhibition zone (IZ) (Aspergillus flavus [21]): inactive; inhibition zone (IZ) (Salmonella typhimurium [23]): inactive; zone of inhibition at 40 µM (Escherichia coli [24]): 9 mm; inhibition zone (IZ) (Aspergillus flavus [26]): inactive; inhibition zone (IZ) (Pseudomonas aeruginosa [29]): inactive; inhibition zone (IZ) (Staphylococcus aureus [30]): inactive; inhibition zone (IZ) (Escherichia coli [31]): inactive; zone of inhibition at 40 µM (Aspergillus niger [32]): 11 mm; zone of inhibition at 160 µM (Staphylococcus aureus [35]): 11 mm; zone of inhibition at 160 µM (Escherichia coli [36]): 14 mm
COc1cc(/C=C/C(=O)C2=C(/C=C/c3ccc(O)c(OC)c3)NC(=O)NC2c2ccc(O)cc2)ccc1O (centres undefined) | 22 | 18 | 11 | 22 | 18 | 20 | 15 | 19 | 20 | inactive | 50 | 13 | 9 | 12.5 | 19 | 25 | 16 | 11 | 14 | 21 | zone of inhibition at 20 µM (Trichoderma viride [1]): 9 mm; zone of inhibition at 20 µM [3]: 9 mm; zone of inhibition at 40 µM [4]: 11 mm; inhibition zone (IZ) (Aspergillus niger [5]): inactive; zone of inhibition at 40 µM (Pseudomonas aeruginosa [6]): 19 mm; zone of inhibition at 40 µM (Salmonella typhimurium [11]): 13 mm; zone of inhibition at 80 µM (Escherichia coli [12]): 18 mm; zone of inhibition at 80 µM (Salmonella typhimurium [18]): 16 mm; zone of inhibition at 20 µM (Staphylococcus aureus [20]; ATCC 11632, 24 h, read-out: IZ): 16 mm; zone of inhibition at 40 µM (Aspergillus flavus [21]; MTCC 1021, 48 h, read-out: IZ): 9 mm; zone of inhibition at 20 µM (Salmonella typhimurium [23]; Salmonella enterica, ATCC 23564, 24 h, read-out: IZ): 9 mm; zone of inhibition at 40 µM (Escherichia coli [24]): 14 mm; zone of inhibition at 80 µM (Aspergillus flavus [26]; MTCC 1021, 48 h, read-out: IZ): 11 mm; zone of inhibition at 20 µM (Pseudomonas aeruginosa [29]; ATCC 15499, 24 h, read-out: IZ): 17 mm; zone of inhibition at 40 µM (Staphylococcus aureus [30]; ATCC 11632, 24 h, read-out: IZ): 19 mm; zone of inhibition at 20 µM (Escherichia coli [31]; ATCC 35218, 24 h, read-out: IZ): 12 mm; inhibition zone (IZ) (Aspergillus niger [32]): inactive; zone of inhibition at 160 µM (Staphylococcus aureus [35]): 24 mm; zone of inhibition at 160 µM (Escherichia coli [36]): 22 mm
COc1cc(/C=C/C(=O)C2=C(/C=C/c3ccc(O)c(OC)c3)NC(=S)NC2c2ccc([N+](=O)[O-])cc2)ccc1O (centres undefined) | 10 | 10 | 18 | 10 | 14 | 17 | 9 | 9 | 19 | inactive | 50 | 11 | 11 | 100 | 11 | 50 | 22 | 13 | 21 | 21 | zone of inhibition at 20 µM (Trichoderma viride [1]): 17 mm; inhibition zone (IZ) [3]: inactive; inhibition zone (IZ) [4]: inactive; inhibition zone (IZ) (Aspergillus niger [5]): inactive; inhibition zone (IZ) (Pseudomonas aeruginosa [6]): inactive; inhibition zone (IZ) (Salmonella typhimurium [11]; [37]): inactive; inhibition zone (IZ) (Salmonella typhimurium [18]; [37]): inactive; inhibition zone (IZ) (Staphylococcus aureus [20]): inactive; inhibition zone (IZ) (Aspergillus flavus [21]): inactive; inhibition zone (IZ) (Salmonella typhimurium [23]): inactive; inhibition zone (IZ) (Aspergillus flavus [26]): inactive; inhibition zone (IZ) (Pseudomonas aeruginosa [29]): inactive; inhibition zone (IZ) (Staphylococcus aureus [30]): inactive; zone of inhibition at 40 µM (Aspergillus niger [32]): 9 mm; zone of inhibition at 160 µM (Staphylococcus aureus [35]): 12 mm; inhibition zone (IZ) (Escherichia coli [36]): inactive
